How the values were obtained:
H4IIE cells = test: MemTox membrane leakage (AK / α-GST); type: cell-based, rat; details: rat, 24 h
Method in brief: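 H4IIE rat hepatoma cells were exposed to compound diluted in complete culture medium. Leakage of adenylate kinase (luminescence) and/or α-GST (ELISA, 450/650 nm) was measured in the medium collected at the end of exposure. Percent live cells was computed relative to 1 mM digitonin-treated maximum release, as means of n=3-7.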

rat cardiomyocytes = test: Intracellular total glutathione (GSH); type: cell-based; details: rat cardiomyocytes, after 3 hr
Method in brief: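 Intracellular total glutathione serves as an oxidative-stress marker in neonatal rat cardiomyocytes exposed to compound in vitro. Cells were harvested for biochemical analysis, and values are means of each exposure group (n=3-7).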

iNOS = test: bDNA analysis of mRNA in rat cardiomyocytes; type: cell-based
Procedure: Nitric oxide was also evaluated since it has been implicated in many pathways related to oxidative stress, apoptosis, and cardiac hypertrophy. More specifically, adriamycin induced mitochondrial toxicity is reduced in the presence of increased iNOS. Thus, a compensatory response to mitochondrial toxicity may be an increase in iNOS (Chaiswing et al., 2005). In this example, rat cardiomyocytes exposed to adriamycin induced iNOS expression more than 15-fold (FIG. 27C).
bDNA Sample Collection and Storage: After 48 hr compound exposure in 96-well plates, 50 μL of stock lysis mixture was added to each 100 μL well. Plates were mixed using a DPC 5 Micromix plate shaker at 37° C. for 15-30 minutes to ensure complete lysis of cells. Cell lysis was confirmed using a Nikon inverted microscope. Plates were stored at −80° C. until further analysis.
bDNA Analysis (Day 1): All solutions were prepared fresh on the day of analysis. Quantigene® bDNA kit components were brought to room temperature prior to use. […]
Substrate working solution was prepared by adding 30 μL of 10% Lithium Lauryl Sulfate to 10 mL Substrate solution per plate. […] Upon completion of last incubation, luminescence was measured using a Packard Fusion or equivalent plate reader with plate heater set to 46° C. Data were collected as relative light units (RLU) and expressed as fold change relative to controls after background subtract.

SK-MEL28 cells = test: BrdU incorporation; type: cell-based, human; details: SK-MEL28, 24 hr exposure to 5 and 10 μM
Procedure: Bromodexoyurine (BrDU) Incorporation: This assay was used to monitor cumulative changes in DNA replication. The assay uses the thymidine analog BrdU to measure S-phase of cell replication and is considered to be the Gold Standard for cell proliferation. BrDU (10 μM) was included in the test compound dosing solution to allow BrDU incorporation during cell replication. BrDU was included for the duration of the exposure, 24 hr. After completion of exposure period, the cells were fixed and labeled with mouse monoclonal anti-BrDU (FITC). Fluorescence was measured using a Packard Fusion or equivalent plate reader at 485 nm excitation and 530 nm emission.
Bromodexoyurine (BrDU) Incorporation: After incubation, the test compound/BrDU solution was removed and cells were fixed. A solution containing mouse monoclonal anti-BrDU (FITC) was added and fluorescence was measured. Data were collected as relative fluorescent units (RFU). The blank was subtracted from the final well RFU. It represents the average of the first and last columns which contain no cells on that particular plate. The controls are untreated cells allowed to grow on the same plate. The compounds are represented by several separate RFU data points for each of the tested concentrations. The percent change relative to controls was calculated by dividing the average RFU by the control cell RFU and multiplying by 100.
Experiments were also conducted to verify the relationship between exposure time and the observed cytostatic effects of the test compound. An additional assay was used to monitor cumulative change in DNA replication. The assay uses the thymidine analog BrdU to measure S-phase of cell replication and is considered to be the Gold Standard for cell proliferation. […] The BrdU assay paralleled the MTT and propidium iodide assays. The apparent lower sensitivity of the BrdU assay is a reflection of the experimental design not the assay. BrdU data represents a cumulative effect from the beginning of exposure while the other assays are measuring one is remaining at the end of either the 24 hr or 72 hr exposure period. […] There was a trend toward increasing activity in caspase-3, a marker for cell apoptosis.

## COc1cccc2c1C(=O)c1c(O)c3c(c(O)c1C2=O)C[C@@](O)(C(=O)CO)C[C@@H]3O[C@H]1C[C@H](N)[C@H](O)[C@H](C)O1 [ADRIAMYCIN, Adriamycin]
H4IIE cells
  less toxic in liver cells than in the cardiomyocytes (TC50 for membrane integrity): approximately 5 fold
Rat cardiomyocytes
  cellular GSH depleted: More than 90%
iNOS
  iNOS expression induction: more than 15 fold

## CC[C@@]1(O)C(=O)OCc2c1cc1n(c2=O)Cc2cc3ccccc3nc2-1 [CAMPTOTHECIN, Camptothecin]
SK-MEL28 cells
  Cell proliferation as measured by the S-phase marker BrdU: undetectable

Source: patent US7615361B2, “Toxicity screening methods” (Ceetox, Inc., priority 2006, dated 2009)
